Test results from PMC2825274 (PLoS ONE, 2010).
In brackets after ≈: the same amount, converted by molar mass. Several values for one entry are separate records, joined by “and”; a condition that tells them apart may be missing. Equal entries are not always repeated. Entries after “also recorded” stand apart in the source; their conditions may differ. Where two headings read alike, the source gives them in different places.

Experiments:
[1] = tested on: 2009 H1N1 influenza strains A/California/04/09 (CA04), A/California/05/09 (CA05) and A/California/10/09 (CA10); experiment: microbe, parasite or virus in culture; format: cell-based, influenza A virus; conditions: for EC50: Influenza A virus, H1N1, MDCK
[2] = tested on: influenza A/California/05/09 (H1N1) (CA05); experiment: microbe, parasite or virus in culture; format: cell-based, influenza A virus; conditions: for EC50: Influenza A virus, H1N1, MDCK, 72 h
[3] = tested on: influenza A/California/04/09 (H1N1) (CA04); experiment: microbe, parasite or virus in culture; format: cell-based, influenza A virus; conditions: for EC50: Influenza A virus, H1N1, MDCK, 72 h
[4] = tested on: A/New Caledonia/20/99 (H1N1) (NC20) susceptible; experiment: microbe, parasite or virus in culture; format: cell-based, influenza A virus

Row | Molecule | EC50 [1] | EC50 [2] | EC50 [3] | EC50 ([4]; Influenza A virus, H1N1, MDCK) [µg/mL] | inhibition of virus-induced CPE as single agent [1] | further results
1 | NC12CC3CC(CC(C3)C1)C2 [Amantadine] | 16 µg/mL to 20 µg/mL and 85 µM to 106 µM | 106 µM and 20 µg/mL | 85 µM and 16 µg/mL | 0.22 (≈ 1.45 µM) |  | antiviral activity as a single agent [1]: no significant antiviral activity; fold reduction in susceptibility [1]: > 250 fold; fold reduction of single-agent activity [1]: 100 fold; amantadine concentration with significant contribution to the synergy of the TCAD regimen [2]: ≥ 0.1 µg/mL; contribution to the total synergy of the TCAD regimen [2]: 24%; amantadine concentration with significant contribution to the synergy of the TCAD regimen [3]: 3.2 µg/mL; contribution to the total synergy of the TCAD regimen [3]: 39%
2 | CCC(CC)[C@H](NC(C)=O)[C@@H]1[C@H](O)[C@@H](C(=O)O)C[C@H]1N=C(N)N [Peramivir] |  |  |  |  | concentration-dependent inhibition of cytopathic effect | TC50 (MDCK cells): >100 µg/mL
3 | NC(=O)c1ncn([C@@H]2O[C@H](CO)[C@@H](O)[C@H]2O)n1 [Ribavirin] |  | 23 µM and 5.6 µg/mL | 28 µM and 7 µg/mL | 3.1 (≈ 12.7 µM) | concentration-dependent inhibition of cytopathic effect | 
4 | CC(N)C12CC3CC(CC(C3)C1)C2 (stereo not drawn) [Rimantadine, rimantadine] | > 12 µg/mL and > 55 µM | > 55 µM and > 12 µg/mL | > 51 µM and > 11 µg/mL |  | did not produce inhibition; also recorded: no activity | 
5 | CC(=O)N[C@H]1[C@H]([C@H](O)[C@H](O)CO)OC(C(=O)O)=C[C@@H]1N=C(N)N [Zanamivir] |  | 230 nM and 0.078 µg/mL | 350 nM and 0.12 µg/mL |  | concentration-dependent inhibition of cytopathic effect | TC50 (MDCK cells; dog): >100 µg/mL
6 | Oseltamivir carboxylate |  |  |  |  | concentration-dependent inhibition of cytopathic effect | EC50 [4]: 0.20 µg/mL
